Several values for one entry are separate records, joined by “and”; a condition that tells them apart may be missing. Identical values can stand only once.
Experiments:
[1] = test system: MiaPaCa-2 cells; test: IncuCyte real-time cell proliferation (cell confluence); assay type: cell-based, human
Procedure: Cell proliferation was measured using a label-free, non-invasive cellular confluence assay employing the IncuCyte™ Live-Cell Imaging Analyzer (Essen Bioscience). This system provides real-time cellular confluence data based on segmentation of high definition phase contrast images. MiaPaCa2 (1,000 cells/well) were seeded overnight on a 96-well plate, placed in an XL-3 incubation chamber maintained at 37 C. and cells photographed and confluence calculated every 2 hr by IncuCyte software. MiaPaCa2 cells were treated with Met (1 and 2 mM) or Mito-Met-C10 (1-2 μM).
(§1) IncuCyte Analyzer-real time measurement of cell proliferation. The cell proliferation was measured using a label-free, noninvasive cellular confluence assay by IncuCyte Live-Cell Imaging Systems (Essen Bioscience, Ann Arbor, Mich., USA; IncuCyte FLR). This system enables collection of live cell images at 2 h intervals over several days. The IncuCyte Analyzer provides real-time cellular confluence data based on segmentation of high-definition phase-contrast images. The cell proliferation is expressed as an increase in percentage of cell confluence.

[2] = test system: MiaPaCa-2 cells; test: Clonogenic assay (colony formation, survival fraction); assay type: cell-based, human; details: for colony formation: 24 h; for IC50: Homo sapiens, MIA PaCa-2, 24 h, read-out: IC50, colony formation / survival fraction
Procedure: Clonogenic assay. […] The plates were kept within the incubator and media changed every 3-4 days until the control cells formed sufficiently large clones. The cell survival fractions were calculated as previously described.

[3] = test system: MiaPaCa-2 cells; test: Oxygen consumption rate in intact cells, Seahorse XF96; assay type: cell-based, human; details: for concentration that inhibited OCR: intact MiaPaCa-2, after 24 h treatment and washout; for OCR inhibition: immediately after addition
Procedure: (§2) Respiratory enzyme activity in intact and permeabilized cells. The mitochondrial function in intact and permeabilized pancreatic cancer cells was measured using a Seahorse XF96 Extracellular Flux Analyzer (Seahorse Bioscience, North Billerica, Mass., USA). Unless specified otherwise, assays in intact cells were performed as previously described. Measurement of mitochondrial respiratory complexes in permeabilized cells was performed according to the manufacturer's instructions (Seahorse Bioscience). Briefly, intact cells were permeabilized using 1 nM Plasma Membrane Permeabilizer (PMP, Seahorse Bioscience) immediately before oxygen consumption rate (OCR) measurement by XF96. The oxygen consumption derived from mitochondrial complex I or complex II activity was measured by providing different substrates to mitochondria, e.g., pyruvate/malate for complex I and succinate for complex II activity. Rotenone, malonate and antimycin A were used as specific inhibitors of mitochondrial complex I, II and III activities, respectively.
Effects of Met and Mito-Met analogs on mitochondrial bioenergetics in MiaPaCa-2 cells. The oxygen consumption rate (OCR) and the extracellular acidification rate (ECAR) were measured as a readout of mitochondrial function and glycolysis using a Seahorse Bioscience XF96 extracellular flux analyzer. We compared the immediate OCR changes in response to different concentrations (e.g., IC50 or higher values determined by clonogenic assay) of Met, Mito-Met2, Mito-Met6, Mito-Met10, and phenformin (FIG. 13A).

[4] = test system: MiaPaCa-2 cells; test: Radiosensitization (X-radiation, clonogenic survival); assay type: cell-based, human; details: for PDAC radiosensitivity: 24 h pretreatment before X-radiation
Procedure: MiaPaCa2 cells (1000 cells/well) were cultured in quadruplicate overnight in 96-well plates and changed to fresh medium.
(§3) Radiation experiments. […] The cells were then treated with X-radiation at a dose of 0, 2, 4, and 6 Gy. The control cells were treated with the same concentration of vehicle (0.1% DMSO) where appropriate. After irradiation, cells were suspended and seeded at various densities (100-8,000 cells per well) in 6-well plates for clonogenic assay as described above. The plates were kept within the incubator and media changed every 3-4 days for 2 weeks. Wells with 10-50 sufficiently large clones were chosen for calculating the cell survival fractions.

[5] = test system: HaCaT cells; test: IncuCyte cell proliferation in nonmalignant cells; assay type: cell-based; details: HaCaT keratinocytes
Procedure: as §1

[6] = test system: MCF-10A cells; test: IncuCyte cell proliferation in nonmalignant cells; assay type: cell-based; details: MCF-10A breast epithelial cells
Procedure: as §1

[7] = molecular target: T1, mitochondrial complex I (Homo sapiens, UniProt O75251+O75306+P03886); test: Complex I oxygen consumption (pyruvate/malate-driven OCR) in permeabilized cells, Seahorse XF96; assay type: cell-based; parameters: IC50, complex I oxygen consumption; other: permeabilized MiaPaCa-2, added acutely; details: permeabilized MiaPaCa-2, added acutely
Procedure: as §2
(§4) The oxygen consumption rate was measured using the permeabilized MiaPaCa-2 cells in MAS buffer supplemented with pyruvate. The use of permeabilized cells avoids differences in cellular uptake of compounds. […] We tested the effect of pretreating cells with Mito-Met10 or Met using the permeabilized model. […]
Target sequence in this assay (P03886 whole entry): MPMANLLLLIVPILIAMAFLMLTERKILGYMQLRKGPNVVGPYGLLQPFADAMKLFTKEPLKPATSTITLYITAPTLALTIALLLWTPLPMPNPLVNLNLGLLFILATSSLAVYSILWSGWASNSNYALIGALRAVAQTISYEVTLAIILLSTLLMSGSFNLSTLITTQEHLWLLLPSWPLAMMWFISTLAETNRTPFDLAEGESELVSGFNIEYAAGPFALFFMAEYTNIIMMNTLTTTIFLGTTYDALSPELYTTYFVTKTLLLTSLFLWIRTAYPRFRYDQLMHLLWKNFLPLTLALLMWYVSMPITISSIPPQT
Target sequence in this assay (O75251 39-213): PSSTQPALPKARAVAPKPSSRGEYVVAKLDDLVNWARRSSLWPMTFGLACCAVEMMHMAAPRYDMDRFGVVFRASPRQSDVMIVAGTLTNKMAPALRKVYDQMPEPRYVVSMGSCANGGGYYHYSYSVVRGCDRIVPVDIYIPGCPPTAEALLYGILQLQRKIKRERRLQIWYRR
Target sequence in this assay (O75306 34-463): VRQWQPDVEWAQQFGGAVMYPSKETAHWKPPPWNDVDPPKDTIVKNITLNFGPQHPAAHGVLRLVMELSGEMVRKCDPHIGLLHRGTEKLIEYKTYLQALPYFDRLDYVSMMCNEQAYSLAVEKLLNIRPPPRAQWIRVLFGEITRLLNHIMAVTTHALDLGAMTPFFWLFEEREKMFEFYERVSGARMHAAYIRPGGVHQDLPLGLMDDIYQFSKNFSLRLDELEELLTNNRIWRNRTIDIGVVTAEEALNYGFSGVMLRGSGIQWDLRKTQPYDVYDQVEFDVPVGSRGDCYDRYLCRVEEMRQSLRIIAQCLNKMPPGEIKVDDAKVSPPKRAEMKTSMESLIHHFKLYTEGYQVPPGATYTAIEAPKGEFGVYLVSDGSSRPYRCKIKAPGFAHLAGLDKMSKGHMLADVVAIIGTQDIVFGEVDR

[8] = molecular target: T1, mitochondrial complex I; test: as above; assay type: cell-based; details: 24 h treatment, then permeabilized
Procedure: as §2, §4
Target sequence in this assay (O75251 39-213): as the sequence (O75251 39-213) above
Target sequence in this assay (O75306 34-463): as the sequence (O75306 34-463) above
Target sequence in this assay (P03886 whole entry): as the sequence (P03886 whole entry) above

[9] = test system: AMPK; test: AMPK activation immunoblot (phospho-Thr-172 / total AMPK); assay type: cell-based, human; details: MiaPaCa-2
Procedure: In this example, the inventors have shown that the mito-met compounds of the present invention cause an increased AMPK activation in cancer cells. In preliminary experiments (FIG. 4), human MiaPaCa2 and murine FC1199 PDAC cells treated 30 min with 1 μM mito-met (MM), 1 mM Met, or the oligomycin positive control were lysed, and proteins size-separated on SDS-PAGE, transferred to PVDF, and probed with an antibody to phosphorylated AMPK Thr-172.
Immunoblotting. MiaPaCa-2 PDAC cells (1×10^6) were plated to 80% confluency in 60 mm dishes and then serum-starved for 5 hours. […] Cells were stimulated with oligomycin as a positive control. After stimulation, cells were washed twice in cold PBS and lysed using a modified RIPA buffer. Lysates were normalized for protein concentration, size separated using reducing SDS-PAGE, electro-transferred to PVDF membranes (Millipore) and then probed using primary and horseradish peroxidase-conjugated secondary antibodies. Antibodies against total or phosphorylated 5′ AMP-activated protein kinase (AMPK) were purchased from Cell Signaling Technology (Danvers, Mass.) and used at the manufacturer's recommended dilutions. Proteins were visualized by chemiluminescence with auto-exposure and quantified by densitometric analysis using the FluorChem HD2 from Cell Biosciences (Santa Clara, Calif.).

[10] = test system: MiaPaCa-2 cells; test: Sytox Green cytotoxicity assay; assay type: cell-based; details: MiaPaCa-2, 24 h, 100 μM
Procedure: Cytotoxicity assay. To determine the cytotoxicity of Mito-Met analogs and other TPP^+-conjugated to a long chain aliphatic hydrocarbon, we used the Sytox assay as described previously. MiaPaCa-2 cells were treated for 24 h, and dead cells were monitored in the presence of 200 nM Sytox Green (Invitrogen). The Sytox method labels the nuclei of dead cells yielding green fluorescence. Fluorescence intensities from the dead cells in 96-well plate were acquired in real time every 15 min after 4 h using a plate reader (BMG Labtech, Inc.) equipped with an atmosphere controller set at 37° C. and 5% CO2:95% air, using a fluorescence detection with 485 nm (excitation) and 535 nm (emission). To measure the total cell number, all of the samples in each treatment group were permeabilized by adding Triton X 100 (0.065%) in the presence of Sytox Green for 3 h, and maximal fluorescence intensities were taken as 100%. Data are represented as a percentage of dead cells after normalization to total cell number for each group.

[11] = test system: MiaPaCa-2 cell 3D spheroids; test: Three-dimensional spheroid growth in Matrigel; assay type: cell-based, human; details: 0.5 μM, compared to Met 10,000 μM
Procedure: Three-dimensional spheroid cell cultures of PDAC. MiaPaCa-2 cells (5,000) were seeded in 96-well plates containing Matrigel (Corning), used as scaffold. This typical 3D-cell culture system allows spheroids to form within the matrix. […] At days 3, 7, and 14 the wells were observed by bright-field microscopy and images acquired on a Nikon Eclipse Ti inverted microscope (Nikon instrument Inc., NY, USA). Spheroid-forming cells were counted using the Nikon NIS Elements imaging software (Nikon). Data are expressed as mean and SD of number of spheroids.

[12] = test system: MCF-10A cells; test: Radiosensitization (X-radiation, clonogenic survival) in normal cells; assay type: cell-based; details: 1 μM pretreatment
Procedure: as §3

[13] = test system: FC1242-luc autografts; test: Orthotopic syngeneic FC1242-luc tumor growth, bioluminescence imaging and calipers; assay type: in vivo, C57BL/6 mice; details: for in vivo tumor growth relative to Met: 1 mg/kg daily, intraperitoneal
Source text: In vivo studies and bioluminescence imaging.

[14] = mouse
Procedure: In an initial proof-of-concept experiment, syngeneic KPC cells expressing Firefly luciferase (FC1242-luc) were orthotopically implanted to the pancreas of C57BL/6 mice and tumor growth monitored using bioluminescence imaging (FIG. 15F). Mice orthotopically autografted with FC1242-luc cells were treated daily with 1 mg/kg or 150 mg/kg Met, or 1 mg/kg Mito-Met. […] Serum from these animals was collected, and hepatic and kidney toxicity tested using standard AST, ALT, AP, and BUN assays, respectively.

[15] = Tissue accumulation in FC1242-luc orthotopic mice; assay type: in vivo; details: 1 mg/kg daily for 2 weeks, tissues harvested 3 days after last treatment
Procedure: FIG. 19. Tissue accumulation of Mito-Met in in vivo FC1242-luc orthotopic mouse model. FC1242-luc orthotopic mice treated with Mito-Met10 (1 mg/kg) daily for 2 weeks. Tissue harvesting and extractions were performed 3 days after the last treatment. Quantitative data on concentrations of Mito-Met after normalization to tissue wet weight are represented as mean±SD, n=5.

[16] = test system: MiaPaCa-2 cells
Procedure: Cells were grown on 10 cm dishes and treated with the compounds for 24 h in full media.
Next we investigated the relative uptake of different Mito-Met analogs (Mito-Met2, Mito-Met6, and Mito-Met10) and phenformin in MiaPaCa-2 cells (FIG. 12D). Cells were treated with respective Mito-Met analog (1 μM) for 1 h. Cells were lysed after washing and analyzed for Mito-Met analog by LC-MS.

[17] = intact MiaPaCa-2, immediately after addition

Compound: CN(C)C(=N)N=C(N)N [Metformin]
- inhibition at 1000 µM ([1]; Homo sapiens, MIA PaCa-2, 1,000 μM, read-out: inhibition of cell growth): 80%
- colony formation ([2]; 3 mM): Almost no colony formation
- IC50 [2]: 1300 µM
- concentration that dose-dependently decreased oxygen consumption [3, 17]: 1 to 10 mM
- PDAC radiosensitivity ([4]; 1 mM): increased radio-sensitization
- PDAC radiosensitivity ([4]; 1 mM, listed as Met): increased radiosensitization
- cell proliferation (confluence) of nonmalignant cells [5]: not significantly affected
- cell proliferation (confluence) of nonmalignant cells [6]: not significantly affected
- concentration that inhibited OCR [7]: 3,000 μM

Compound: N=C(N)NC(=N)NCC[P+](c1ccccc1)(c1ccccc1)c1ccccc1.[Br-] [Mito-Met2]
- concentration that inhibited OCR [3]: 25 µM

Compound: N=C(N)NC(=N)NCCCCCCCCCC[P+](c1ccccc1)(c1ccccc1)c1ccccc1.[Br-] [Mito-Met10]
- fold more effective than Met in inhibiting PDAC proliferation [1]: ~1,000 fold and > 1,000 fold
- inhibition at 0.2 µM ([1]; Homo sapiens, MIA PaCa-2, 0.2 μM, read-out: inhibition of cell growth): 70%
- inhibition at 1 µM ([1]; Homo sapiens, MIA PaCa-2, 1 μM, read-out: inhibition of cell growth): > 90%
- IC50 ([1]; Homo sapiens, MIA PaCa-2, MiaPaCa-2, read-out: IC50 (FIG. 12B, cell confluence)): 0.84 µM
- colony formation ([2]; 3 μM): Almost no colony formation
- IC50 [2]: 1.1 µM
- fold more effective than metformin in inhibiting MiaPaCa-2 cell proliferation ([2]; clonogenic, 24 h treatment (FIG. 5)): ~1,000 fold
- concentration giving significant decrease in OCR (complex I inhibition) [8]: 0.75 µM
- OCR inhibition ([3]; 1 μM): did not inhibit OCR
- concentration that inhibited OCR [3]: 1 µM
- OCR inhibition ([3]; ≈10 μM): slight inhibition
- AMPK activation, fold more potent / lower concentration than metformin [9]: ~1,000 fold
- cell death (Sytox Green) [10]: no detectable cell death
- spheroid growth [11]: potently inhibited
- fold lower concentration than Met for enhancement of radiation sensitivity ([4]; 1 μM versus Met 1 mM): 1,000 fold
- PDAC radiosensitivity ([4]; 1 μM): as effective as 1 mM Met
- radiosensitivity in normal cells [12]: no radiosensitivity was observed
- cell proliferation (confluence) of nonmalignant cells [5]: not significantly affected
- cell proliferation (confluence) of nonmalignant cells [6]: not significantly affected
- in vivo tumor growth relative to Met [13]: considerably more potent than Met
- in vivo tumor growth relative to Met ([13]; listed as Mito-Met): considerably more effective than Met
- therapeutic index, fold greater than Met ([13]; in vivo experiments): ~1,000 fold
- toxicity in vivo (hepatic and kidney) [14]: neither Met nor the mitochondria-targeted analog Mito-Met elicited toxicity in vivo
- tissue accumulation [15]: increased accumulation of this compound in liver, kidney, spleen, and tumor
- difference in intracellular uptake and retention, MiaPaCa-2 and MCF-10A cells ([16]; LC-MS (FIG. 14C)): four-fold
- cellular uptake, fold higher than phenformin ([16]; MiaPaCa-2, 1 μM, 1 h): ~100 fold
- concentration that inhibited OCR [7]: 10 µM

Compound: COC1=C(OC)C(=O)C(CCCCCCCCCC[P+](c2ccccc2)(c2ccccc2)c2ccccc2)=C(C)C1=O [Mito-Q]
- cell death (Sytox Green) [10]: considerably more cytotoxic

Compound: CC1(C)CC(OCCCCC[P+](c2ccccc2)(c2ccccc2)c2ccccc2)CC(C)(C)N1[O].[Br-] [Mito-Tempol]
- cell death (Sytox Green) [10]: considerably more cytotoxic

Compound: [H]/N=C(/N)N/C(=N/[H])NCCc1ccccc1 [Phenformin, reference compound]
- concentration inhibiting OCR to the same extent as Met [3, 17]: ten-fold lower concentration
